The source of these data is ChEMBL document CHEMBL3272105, “Quantitative structure-activity studies on monoamine oxidase inhibitors” (J Med Chem, 1976).

For one data set, the system named is Rattus norvegicus. Put plainly: Ratio of compound to iproniazid for in vivo inhibition of monoamine oxidase in rat brain assessed as increase in serotonin production after 16 hrs. In kind it is functional.
A short description of data set [1]: Octanol-water partition coefficient, log P of the compound. It counts as physicochemical.

For the molecule `CC(C)NNC(=O)c1cnccn1`, the Ratio in the data set on Rattus norvegicus is listed as 152.

What is called logP is a log measure of how a compound divides between an organic and an aqueous phase. `CC(C)NNC(=O)c1ccc(N)cc1`: in data set [1] (read-out: logP), the logP is 0.9. Further, in the data set on Rattus norvegicus, the Ratio was 15.

For the molecule `CC(C)NNC(=O)c1cccnc1`, the logP in data set [1] (read-out: logP) is 0.32. In addition, in the data set with Rattus norvegicus, the Ratio came out at 111.

Consider `Cc1noc(C)c1C(=O)NNC(C)C`, for which the logP in data set [1] (read-out: logP) came out at 1.2. Further, the Ratio in the data set with Rattus norvegicus turned out to be 0.

Consider `CC(C)NNC(=O)c1cc[nH]n1`, for which, in the data set on Rattus norvegicus, the Ratio came to 84.

Regarding `CC(C)NNC(=O)c1ccccn1`, the logP in data set [1] (read-out: logP) worked out at 0.32. In the data set with Rattus norvegicus, the Ratio stood at 191.

Turning to `Cc1ncc(C(=O)NNC(C)C)c(C)n1`, the logP in data set [1] (read-out: logP) is -0.4. Besides, in the data set on Rattus norvegicus, the Ratio is on record as 0.

Turning to `CC(C)NNC(=O)c1ccsc1`, the logP in data set [1] (read-out: logP) turned out to be 1.61. Moreover, the Ratio with Rattus norvegicus is listed as 192.

In the case of `Cc1ccc(C(=O)NNC(C)C)cc1C`, the logP in data set [1] (read-out: logP) stood at 3.25. Besides, the Ratio in the data set with Rattus norvegicus is reported as 76.

`CC(C)NNC(=O)c1ccc(C(C)C)cc1`: the logP in data set [1] (read-out: logP) turned out to be 3.66. Further, the Ratio in the data set on Rattus norvegicus is listed as 97.

Molecule `CC(C)NNC(=O)c1ccncc1` [IPRONIAZID] gave a logP in data set [1] of 0.32. Further, the Ratio with Rattus norvegicus came to 100.

As to `CC(C)NNC(=O)c1ccc(O)cc1`, the logP in data set [1] (read-out: logP) was 1.46. For the same molecule, the Ratio in the data set with Rattus norvegicus stood at 11.

Turning to `CC(C)NNC(=O)c1ccccc1N`, in data set [1] (read-out: logP), the lipophilicity (logP) was found to be 0.9. In addition, the Ratio in the data set with Rattus norvegicus is given as 60.

Consider `CC(C)NNC(=O)c1cccc([N+](=O)[O-])c1`, for which the logP in data set [1] (read-out: logP) turned out to be 1.85. Besides, in the data set with Rattus norvegicus, the Ratio is 125.

As for `CC(C)NNC(=O)c1cccnn1`, the Ratio in the data set on Rattus norvegicus worked out at 0.

Turning to `COc1ccc(C(=O)NNC(C)C)cc1`, in data set [1] (read-out: logP), the logP stood at 2.11. In addition, in the data set with Rattus norvegicus, the Ratio is listed as 63.

For `CC(C)NNC(=O)c1ccc(Cl)cc1`, the lipophilicity (logP) in data set [1] (read-out: logP) stood at 2.84. For the same molecule, in the data set on Rattus norvegicus, the Ratio was 134.

For the molecule `Cc1ncsc1C(=O)NNC(C)C`, the logP in data set [1] (read-out: logP) was found to be 0.44. The Ratio with Rattus norvegicus turned out to be 38.

On to `CC(C)NNC(=O)c1ccco1`, for which the Ratio in the data set with Rattus norvegicus was 156.

Turning to `CC(C)NNC(=O)c1c[nH]nn1`, the Ratio with Rattus norvegicus came to 38.

Consider `CC(C)NNC(=O)c1cccc(Cl)c1`, for which the logP in data set [1] (read-out: logP) came out at 2.84. In addition, the Ratio with Rattus norvegicus is given as 123.

Regarding `CC(C)NNC(=O)c1ccccc1O`, the log partition coefficient (logP) in data set [1] (read-out: logP) amounted to 1.46. Further, the Ratio with Rattus norvegicus was found to be 0.

Take `CC(C)NNC(=O)c1cccs1`: the logP in data set [1] (read-out: logP) came out at 1.61. In addition, the Ratio in the data set with Rattus norvegicus is given as 198.
